# US5053070A, “Pyrimidine derivatives, preparation processes thereof, herbicide containing the same, and herbicidal compositions containing the same along with other active ingredient” (Mitsui Toatsu Chemicals, Incorporated, priority 1988, dated 1991)
# Where two headings read alike, the source gives them in different places.
# Experiments:
# Type in all cases: in vivo
# redroot pigweed [1] = assay: Upland foliar application test by mixed formulations, concentration gradient (Test 8)
# Experimental: (§1) Resin-made 1/10,000-are pots were filled with the soil of an upland field. Redroot pigweed and johnsongrass were separately seeded and were allowed to germinate in a green house. When each plant grew to the stage of 2-3 leaves, emulsions formulated with concentration gradient from predetermined amounts of two test compounds of different kinds in a similar manner to the method described in Formulation Example 16 was diluted with water to a predetermined dilution rate and then sprayed at an application rate equal to 5 l per are onto the foliage of each plant by means of a pressure-operated ULV (ultra low volume) sprayer. Influence to the weeds were observed on the 40th day after the spray of the herbicides. The results are shown in Table 9, In the table, Ea have the same meanings as in Test 7, and Ea>Ec indicates the existence of synergistic action while Ea<Ec indicates the existence of antagonistic action.
# johnsongrass [2] = assay: as above
# Experimental: as §1
# redroot pigweed [3] = assay: Upland foliar application test by mixed formulations (Test 7); conditions: Amaranthus retroflexus, 720 h, read-out: Herbicidal effects (%) Redrood pigweed Ea
# Experimental: (§2) Resin-made 1/10,000-are pots were filled with the soil of an upland field. Redroot pigweed, morningglories, johnsongrass, barnyardgrass and green foxtail were separately seeded and were allowed to germinate in a green house. When each plant grew to the stage of 2-3 leaves, an emulsion formulated from predetermined amounts of two test compounds of different kinds in a similar manner to the method described in Formulation Example 16 was diluted with water to a predetermined dilution rate and then sprayed at an application rate equal to 5 l per are onto the foliage of each plant by means of a pressure-operated ULV (ultra low volume) sprayer. Influence to the weeds were observed on the 30th day after the spray of the herbicides. In the table, each Ea means an acutally measured value of herbicidal activities when two kinds of herbicides were mixed. Each Ec is an expected value for herbicidal activities, calculated in accordance with the below-described calculation formula proposed by Colby et al. [Colby, S. R., Weed 15, 20-22 (1967)]. Ea>Ec indicates the existence of synergistic action while […] action. [formula] Ec: Growth inhibition rate (%) expected when Ingredient I and Ingredient II are mixed.
# (§3) Ex: Growth inhibition rate (%) when treated with Ingredient I alone.
# (§4) Ey: Growth inhibition rate (%) when treated with Ingredient II alone.
# johnsongrass [4] = assay: as above; conditions: Sorghum halepense, 720 h; for pest or weed control at 1000 g/ha: read-out: Herbicidal effects (%) Johnsongrass Ea, applied alone, 1 kg/ha, foliar, 30th day
# Experimental: as §2, §3, §4
# green foxtail = assay: as above; conditions: Setaria viridis, 720 h, applied alone, 0.3 kg/ha, 30th day, read-out: Herbicidal effects (%) Green foxtail Ea
# Experimental: as §2, §3, §4
# morningglories = assay: as above; conditions: Ipomoea, 720 h, applied alone, 0.3 kg/ha, 30th day, read-out: Herbicidal effects (%) Morningglory Ea
# Experimental: as §2, §3, §4
# barnyardgrass = assay: as above; conditions: Echinochloa crus-galli, 720 h, applied alone, 0.3 kg/ha, 30th day, read-out: Herbicidal effects (%) Barnyardgrass Ea
# Experimental: as §2, §3, §4
# [5] = Amaranthus retroflexus, 960 h, applied alone, 2 g/a, 40th day, read-out: Herbicidal effects Redrood pigweed Ea
# [6] = Amaranthus retroflexus, 960 h, applied alone, 4 g/a, 40th day, read-out: Herbicidal effects Redrood pigweed Ea
# [7] = Amaranthus retroflexus, 960 h, applied alone, 8 g/a, 40th day, read-out: Herbicidal effects Redrood pigweed Ea
# [8] = Sorghum halepense, 960 h, applied alone, 2 g/a, 40th day, read-out: Herbicidal effects Johnsongrass Ea
# [9] = Sorghum halepense, 960 h, applied alone, 4 g/a, 40th day, read-out: Herbicidal effects Johnsongrass Ea
# [10] = Sorghum halepense, 960 h, applied alone, 8 g/a, 40th day, read-out: Herbicidal effects Johnsongrass Ea
# [11] = Amaranthus retroflexus, 960 h, read-out: Herbicidal effects Redrood pigweed Ea
# [12] = Sorghum halepense, 960 h, read-out: Herbicidal effects Johnsongrass Ea
molecule,measurement,setting,value
"2-methylthio-4-methylamino-6-isopropylamino-1,3,5-triazine [Ametryn]",Herbicidal effects Redrood pigweed Ea,"redroot pigweed [1]; applied alone, 2 g/a, 40th day",10%
same,Herbicidal effects Redrood pigweed Ea,"redroot pigweed [1]; applied alone, 4 g/a, 40th day",20%
same,Herbicidal effects Redrood pigweed Ea,"redroot pigweed [1]; applied alone, 8 g/a, 40th day",30%
same,Herbicidal effects Johnsongrass Ea,"johnsongrass [2]; applied alone, 2 g/a, 40th day",0%
same,Herbicidal effects Johnsongrass Ea,"johnsongrass [2]; applied alone, 4 g/a, 40th day",10%
same,Herbicidal effects Johnsongrass Ea,"johnsongrass [2]; applied alone, 8 g/a, 40th day",20%
"CC(C)c1ccc(NC(=O)N(C)C)cc1 [Isoproturon, 3-(4-isopropylphenyl)-1,1-dimethylurea]",pest or weed control at 200 g/ha,redroot pigweed [1]; [5],10%
same,pest or weed control at 400 g/ha,redroot pigweed [1]; [6],20%
same,pest or weed control at 800 g/ha,redroot pigweed [1]; [7],40%
same,pest or weed control at 200 g/ha,johnsongrass [2]; [8],0%
same,pest or weed control at 400 g/ha,johnsongrass [2]; [9],10%
same,pest or weed control at 800 g/ha,johnsongrass [2]; [10],20%
"CCCC(C)C(=O)Nc1ccc(C(C)C)c(Cl)c1 (stereo not drawn) [MT-5950, N-(3-chloro-4-isopropylphenyl)-2-methylpentamide]",pest or weed control at 200 g/ha,redroot pigweed [1]; [5],30%
same,pest or weed control at 400 g/ha,redroot pigweed [1]; [6],70%
same,pest or weed control at 800 g/ha,redroot pigweed [1]; [7],85%
same,pest or weed control at 200 g/ha,johnsongrass [2]; [8],10%
same,pest or weed control at 400 g/ha,johnsongrass [2]; [9],10%
same,pest or weed control at 800 g/ha,johnsongrass [2]; [10],20%
"CCc1cccc(CC)c1N(COC)C(=O)CCl [alachlor, N-methoxymethyl-2',6'-diethyl-2-chloroacetanilide, reference compound]",pest or weed control at 1000 g/ha,redroot pigweed [3],40%
same,pest or weed control at 1000 g/ha,johnsongrass [4],30%
"CCNc1nc(Cl)nc(NC(C)C)n1 [atrazine, 2-chloro-4-ethylamino-6-isopropylamino-1,3,5-triazine]",pest or weed control at 800 g/ha,redroot pigweed [3],40%
same,pest or weed control at 800 g/ha,"johnsongrass [4]; read-out: Herbicidal effects (%) Johnsongrass Ea, applied alone, 0.8 kg/ha, foliar, 30th day",10%
same,pest or weed control at 200 g/ha,redroot pigweed [1]; [11],10%
same,pest or weed control at 400 g/ha,redroot pigweed [1]; [11],30%
same,pest or weed control at 800 g/ha,redroot pigweed [1]; [11],40%
same,pest or weed control at 200 g/ha,johnsongrass [2]; [12],0%
same,pest or weed control at 400 g/ha,johnsongrass [2]; [12],10%
same,pest or weed control at 800 g/ha,johnsongrass [2]; [12],10%
"CC(C)N1C(=O)c2ccccc2NS1(=O)=O [bentazon, 3-isopropyl-(1H)-2,1,3-benzothiadiazin-4-(3H)-one-2,2-dioxide]",pest or weed control at 500 g/ha,"redroot pigweed [3]; applied alone, 0.5 kg/ha, 30th day",40%
same,pest or weed control at 500 g/ha,"johnsongrass [4]; applied alone, 0.5 kg/ha, 30th day, read-out: Herbicidal effects (%) Johnsongrass Ea",0%
same,pest or weed control at 200 g/ha,redroot pigweed [1]; [5],30%
same,pest or weed control at 400 g/ha,redroot pigweed [1]; [6],40%
same,pest or weed control at 800 g/ha,redroot pigweed [1]; [7],70%
same,pest or weed control at 200 g/ha,johnsongrass [2]; [8],0%
same,pest or weed control at 400 g/ha,johnsongrass [2]; [9],0%
same,pest or weed control at 800 g/ha,johnsongrass [2]; [10],20%
"O=C(O)c1cc(Oc2ccc(C(F)(F)F)cc2Cl)ccc1[N+](=O)[O-] [blazer, reference compound]",pest or weed control at 300 g/ha,green foxtail,40%
same,pest or weed control at 300 g/ha,morningglories,100%
same,pest or weed control at 300 g/ha,barnyardgrass,100%
same,pest or weed control at 300 g/ha,"redroot pigweed [3]; applied alone, 0.3 kg/ha, 30th day",100%
"CCNc1nc(Cl)nc(NC(C)(C)C#N)n1 [cyanazine, 2-(2-chloro-4-ethylamino-1,3,5-triazine-6-ylamino)-2-methylpropionitrile]",pest or weed control at 1000 g/ha,redroot pigweed [3],40%
same,pest or weed control at 1000 g/ha,johnsongrass [4],10%
same,pest or weed control at 400 g/ha,redroot pigweed [1]; [11],10%
same,pest or weed control at 800 g/ha,redroot pigweed [1]; [11],30%
same,pest or weed control at 1600 g/ha,redroot pigweed [1]; [11],50%
same,pest or weed control at 400 g/ha,johnsongrass [2]; [12],0%
same,pest or weed control at 800 g/ha,johnsongrass [2]; [12],10%
same,pest or weed control at 1600 g/ha,johnsongrass [2]; [12],20%
